From patent publication US10316017B2, “COT modulators and methods of use thereof” (Gilead Sciences, Inc., priority 2015, dated 2019)
Like-named read-outs stand apart in the source and are kept apart here.

What was measured:
[1] = molecular target: T1, human Cot catalytic domain (30-397 amino acids) (Homo sapiens, UniProt P41279); assay: High Throughput Cot Biochemical Assay (KinEASE TR-FRET); conditions: 400 μM ATP
T1 construct: Purified recombinant human Cot catalytic domain (30-397 amino acids) was purchased from Cama Biosciences; purchased Cama Biosciences (so in the source)
Summary of the method: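 TR-FRET (KinEASE) read-out: Eu-labelled phospho-specific antibody binds XL665-tagged STK3 peptide (1 μM) phosphorylated by 5 nM human Cot kinase domain (residues 30-397). Reaction at 400 μM ATP, pH 7.0 MOPS buffer with 10 mM MgOAc, 1 mM DTT and 0.1% DMSO.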

[2] = system: TNFα production in LPS-stimulated human monocytes; assay: Cot Monocyte TNFα Cell Based Assay; conditions: for IC50/EC50 [nM]: EC50 (TNFα, monocytes): second value of the cell IC50/EC50, human monocytes, 50 pg/ml LPS, 4 hours; for EC50: Homo sapiens, Monocyte, LPS-stimulated human monocytes, TNFα TR-FRET, read-out: EC50 TNF
Summary of the method: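 TNFα release quantified by two-antibody TR-FRET, normalised to unstimulated (0%) and LPS-stimulated (100%) wells. Cells got a 1 h compound exposure at 37° C in 0.5% DMSO before 4 h challenge with 50 pg/ml LPS, at 5,000 cells/well.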

[3] = molecular target: T2, Human EGFR, cytoplasmic domain [669-1210] (Homo sapiens, UniProt P00533); assay: High Throughput EGFR Biochemical Assay (KinEASE TR-FRET)
T2 construct: purchased Cama Biosciences (so in the source)
Description: Example 62: High Throughput EGFR Biochemical Assay
EGFR activity was measured using KinEASE (Cisbio), a time-resolved fluorescence resonance energy transfer (TR-FRET) immunoassay. In this assay, EGFR-catalyzes the phosphorylation of a universal Tyrosine kinase peptide substrate labeled with XL665. Europium conjugated phosphor-tyrosine specific antibody binds the resulting phosphorylated peptide. Formation of phosphorylated peptide is quantified by TR-FRET with Europium as the donor and XL665 the acceptor. The assay was performed in two main steps. The first step is the kinase reaction step and the second step is the detection step with TR-FRET reagents. In brief, test compounds 1:3 serially diluted in DMSO were delivered into Corning white, low volume, non-binding 384 well plates using the Echo 550 acoustic liquid dispenser (Labcyte®). […] After 60 min of incubation at room temperature, 10 μL of Stop and Detect Solution (1:400 Europium Cryptate labeled anti-phosphorylated peptide antibody solution and 125 nM strepavidin-XL665 Tracer in a 50 mM Hepes pH 7.0 detection buffer containing sufficient EDTA) was added.

[4] = Cot KinEASE TR-FRET, read-out: IC50 HTRF

T1 sequence (P41279 30-397): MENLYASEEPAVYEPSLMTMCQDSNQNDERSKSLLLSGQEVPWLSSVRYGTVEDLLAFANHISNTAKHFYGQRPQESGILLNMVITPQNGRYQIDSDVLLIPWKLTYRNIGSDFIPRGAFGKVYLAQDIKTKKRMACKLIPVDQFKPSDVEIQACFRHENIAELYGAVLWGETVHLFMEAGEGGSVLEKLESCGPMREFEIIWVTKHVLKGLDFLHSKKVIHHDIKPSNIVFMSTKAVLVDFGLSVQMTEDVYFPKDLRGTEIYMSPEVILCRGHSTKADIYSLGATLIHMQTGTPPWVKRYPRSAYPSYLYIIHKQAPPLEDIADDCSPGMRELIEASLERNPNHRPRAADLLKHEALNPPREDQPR
T2 sequence (P00533 669-1210): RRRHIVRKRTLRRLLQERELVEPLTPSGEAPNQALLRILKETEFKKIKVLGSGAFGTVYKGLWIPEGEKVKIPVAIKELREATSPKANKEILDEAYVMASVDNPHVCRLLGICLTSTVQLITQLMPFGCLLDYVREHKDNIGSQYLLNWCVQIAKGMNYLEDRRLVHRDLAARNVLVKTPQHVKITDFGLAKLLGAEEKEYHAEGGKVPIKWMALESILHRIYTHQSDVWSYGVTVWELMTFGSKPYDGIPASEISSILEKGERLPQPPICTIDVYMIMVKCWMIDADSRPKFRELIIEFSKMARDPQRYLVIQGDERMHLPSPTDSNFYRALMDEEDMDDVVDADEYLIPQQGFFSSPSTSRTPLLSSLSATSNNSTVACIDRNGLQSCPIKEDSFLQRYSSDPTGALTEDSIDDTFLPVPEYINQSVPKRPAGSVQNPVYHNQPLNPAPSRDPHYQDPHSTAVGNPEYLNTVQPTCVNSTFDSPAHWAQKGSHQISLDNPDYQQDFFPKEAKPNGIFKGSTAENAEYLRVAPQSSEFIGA

Row | Compound | IC50 ([1]; IC50/EC50 [nM]: IC50 (Cot), first value of the cell IC50/EC50, 5 nM Cot) [nM] | IC50/EC50 [nM]: EC50 (TNFα, monocytes) [2] [nM] | IC50 [3] [nM] | IC50 ([1]; first value of the cell IC50/EC50, 5 nM Cot, read-out: IC50/EC50 [nM]: IC50 (Cot)) [nM] | IC50 [1, 4] [nM] | EC50 [2] [nM]
1 | Cn1cc(CNc2cc(Cl)c3ncc(C#N)c(Nc4ccc(F)c(Cl)c4)c3c2)nn1 [Comparative Example 3, reference compound] | 67 | > 10000 | > 10000 |  |  | 
2 | CC(Nc1cc(Cl)c2ncc(C#N)c(Nc3ccc(F)c(Cl)c3)c2c1)c1cn(C)nn1 (stereo not drawn) [Comparative Example 4, reference compound] |  |  | > 10000 | > 10000 |  | 
3 | CCN1CCC(n2cc([C@@H](Nc3cc(Cl)c4ncc(C#N)c(Nc5ccc(F)c(Cl)c5)c4c3)c3ccccc3)nn2)CC1 [Example 919, (S)-8-chloro-4-((3-chloro-4-fluorophenyl)amino)-6-(((1-(1-ethylpiperidin-4-yl)-1H-1,2,3-triazol-4-yl)(phenyl)methyl)amino) quinoline-3-carbonitrile] |  | 62 | 2290 |  | 2 | 62
4 | Cn1cc(C(Nc2cc(Cl)c3ncc(C#N)c(Nc4ccc(F)c(Cl)c4)c3c2)c2ccccc2)nn1 (stereo not drawn) [Example 920, 8-chloro-4-((3-chloro-4-fluorophenyl)amino)-6-(((1-methyl-1H-1,2,3-triazol-4-yl)(phenyl)methyl)amino) quinoline-3-carbonitrile] |  | 215 | > 10000 |  | 10 | 215
5 | Cc1nnc(C2(n3cc([C@@H](Nc4cc(C#N)c5ncc(C#N)c(NCC(C)(C)C)c5c4)c4ccccc4Cl)nn3)CC2)o1 [Example 1161, (S)-6-(((2-chlorophenyl)(1-(1-(5-methyl-1,3,4-oxadiazol-2-yl)cyclopropyl)-1H-1,2,3-triazol-4-yl)methyl)amino)-4-(neopentylamino)quinoline-3,8-dicarbonitrile] |  |  |  |  | 14 | 45
6 | Cc1c(-c2ccn(C)n2)cccc1[C@H](Nc1cc(Cl)c2ncc(C#N)c(NCC(C)(C)C)c2c1)c1cn(C2(C(F)(F)F)CC2)nn1 [Example 1162, (S)-8-chloro-6-(((2-methyl-3-(1-methyl-1H-pyrazol-3-yl)phenyl) (1-(1-(trifluoromethyl)cyclopropyl)-1H-1,2,3-triazol-4-yl)methyl)amino)-4-(neopentylamino)quinoline-3-carbonitrile] |  |  |  |  | 16 | 477
7 | Cc1c(-c2cc[nH]n2)cccc1[C@H](Nc1cc(Cl)c2ncc(C#N)c(NCC(C)(C)C)c2c1)c1cn(C2(C(F)(F)F)CC2)nn1 [Example 1163, (S)-8-chloro-6-(((2-methyl-3-(1H-pyrazol-3-yl)phenyl)(1-(1-(trifluoromethyl)cyclopropyl)-1H-1,2,3-triazol-4-yl)methyl)amino)-4-(neopentylamino)quinoline-3-carbonitrile] |  |  |  |  | 19 | 463
8 | Cc1c(-c2cn[nH]c2)cccc1[C@H](Nc1cc(Cl)c2ncc(C#N)c(NCC(C)(C)C)c2c1)c1cn(C2(C(F)(F)F)CC2)nn1 [Example 1164, (S)-8-chloro-6-(((2-methyl-3-(1H-pyrazol-4-yl)phenyl) (1-(1-(trifluoromethyl)cyclopropyl)-1H-1,2,3-triazol-4-yl)methyl)amino)-4-(neopentylamino) quinoline-3-carbonitrile] |  |  |  |  | 13 | 66
9 | Cc1c(-c2cnco2)cccc1[C@H](Nc1cc(Cl)c2ncc(C#N)c(NCC(C)(C)C)c2c1)c1cn(C2(C(F)(F)F)CC2)nn1 [Example 1165, (S)-8-chloro-6-(((2-methyl-3 (oxazol-5-yl)phenyl)(1-(1-(trifluoromethyl)cyclopropyl)-1H-1,2,3-triazol-4-yl)methyl)amino)-4-(neopentylamino)quinoline-3-carbonitrile] |  |  |  |  | 9 | 102
10 | Cc1c(-c2cn[nH]c2)cccc1[C@H](Nc1cc(Cl)c2ncc(C#N)c(NCC(C)(C)C)c2c1)c1cn(C2(C(F)F)CC2)nn1 [Example 1166, (S)-8-chloro-6-(((1-(1-(difluoromethyl)cyclopropyl)-1H-1,2,3-triazol-4-yl) (2-methyl-3-(1H-pyrazol-4-yl)phenyl)methyl)amino)-4-(neopentylamino)quinoline-3-carbonitrile] |  |  |  |  | 5 | 47
11 | Cc1c(-c2cnco2)cccc1[C@H](Nc1cc(Cl)c2ncc(C#N)c(NCC(C)(C)C)c2c1)c1cn(C2(C(F)F)CC2)nn1 [Example 1167, (S)-8-chloro-6-(((1-(1-(difluoromethyl)cyclopropyl)-1H-1,2,3-triazol-4-yl)(2-methyl-3-(oxazol-5-yl)phenyl)methyl)amino)-4-(neopentylamino)quinoline-3-carbonitrile] |  |  |  |  | 5 | 62
12 | Cc1c(C#N)cccc1[C@H](Nc1cc(Cl)c2ncc(C#N)c(NCC(C)(C)C)c2c1)c1nnn(C2(C(F)F)CC2)c1F [Example 1168, (S)-8-chloro-6-(((3-cyano-2-methylphenyl)(1-(1-(difluoromethyl)cyclopropyl)-5-fluoro-1H-1,2,3-triazol-4-yl)methyl)amino)-4-(neopentylamino)quinoline-3-carbonitrile] |  |  |  |  | 4 | 75
13 | CC(C)(C)CNc1c(C#N)cnc2c(Cl)cc(N[C@@H](c3ccccc3Cl)c3nnn(C4(C)CC4)c3F)cc12 [Example 1169, (S)-8-chloro-6-(((2-chlorophenyl)(5-fluoro-1-(1-methylcyclopropyl)-1H-1,2,3-triazol-4-yl)methyl)amino)-4-(neopentylamino)quinoline-3-carbonitrile] |  |  |  |  | 234 | ≥ 1000
14 | COc1c([C@@H](Nc2cc(Cl)c3ncc(C#N)c(NCC(C)(C)C)c3c2)c2ccccc2Cl)nnn1C1(C)CC1 [Example 1170, (S)-8-chloro-6-(((2-chlorophenyl)(5-methoxy-1-(1-methylcyclopropyl)-1H-1,2,3-triazol-4-yl)methyl)amino)-4-(neopentylamino)quinoline-3-carbonitrile] |  |  |  |  | 217 | ≥ 1000
